Measured values: PubChem BioAssay (NCI)
Several values for one entry are separate records, joined by “and”; a condition that tells them apart may be missing. Identical values can stand only once.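 Values below derive from 48-hour exposures of cells grown in 96-well plates, with endpoints linearly interpolated between the two concentrations bracketing the appropriate inhibition level. Abbreviation: GI50, concentration required for 50% inhibition of growth. TGI denotes the concentration required for complete inhibition of growth.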

Assays:
Test in all cases: NCI anticancer screen, dose series, 48 h
MCF7 breast = tested on: MCF7 breast
COLO 205 colon = tested on: COLO 205 colon
ACHN renal = tested on: ACHN renal
DU-145 prostate = tested on: DU-145 prostate
MOLT-4 leukemia = tested on: MOLT-4 leukemia
A549 NSCLC = tested on: A549 NSCLC
SR leukemia = tested on: SR leukemia
SK-OV-3 ovarian = tested on: SK-OV-3 ovarian
SK-MEL-28 melanoma = tested on: SK-MEL-28 melanoma
SNB-19 CNS = tested on: SNB-19 CNS
HT29 colon = tested on: HT29 colon
UACC-257 melanoma = tested on: UACC-257 melanoma
NCI-H23 lung = tested on: NCI-H23 lung
BT-549 breast = tested on: BT-549 breast
NCI-H460 lung = tested on: NCI-H460 lung
NCI/ADR-RES ovarian = tested on: NCI/ADR-RES ovarian
NCI-H522 lung = tested on: NCI-H522 lung
SF-268 CNS = tested on: SF-268 CNS
MALME-3M melanoma = tested on: MALME-3M melanoma
IGROV1 ovarian = tested on: IGROV1 ovarian
HOP-62 NSCLC = tested on: HOP-62 NSCLC
T-47D breast = tested on: T-47D breast
SK-MEL-2 melanoma = tested on: SK-MEL-2 melanoma
CCRF-CEM leukemia = tested on: CCRF-CEM leukemia
SNB-75 CNS = tested on: SNB-75 CNS
PC-3 prostate = tested on: PC-3 prostate
MDA-MB-231 breast = tested on: MDA-MB-231 breast
LOX IMVI melanoma = tested on: LOX IMVI melanoma
U251 CNS = tested on: U251 CNS
M14 melanoma = tested on: M14 melanoma
CAKI-1 renal = tested on: CAKI-1 renal
HCC-2998 colon = tested on: HCC-2998 colon
SF-539 CNS = tested on: SF-539 CNS
UO-31 renal = tested on: UO-31 renal
OVCAR-4 ovarian = tested on: OVCAR-4 ovarian
OVCAR-8 ovarian = tested on: OVCAR-8 ovarian
OVCAR-5 ovarian = tested on: OVCAR-5 ovarian
786-0 renal = tested on: 786-0 renal
SW-620 colon = tested on: SW-620 colon
MDA-MB-435 = tested on: MDA-MB-435
TK-10 renal = tested on: TK-10 renal
SN12C renal = tested on: SN12C renal
HOP-92 NSCLC = tested on: HOP-92 NSCLC
HS 578T breast = tested on: HS 578T breast
HL-60(TB) leukemia = tested on: HL-60(TB) leukemia
SF-295 CNS = tested on: SF-295 CNS
HCT-15 colon = tested on: HCT-15 colon
OVCAR-3 ovarian = tested on: OVCAR-3 ovarian
A498 renal = tested on: A498 renal
NCI-H226 lung = tested on: NCI-H226 lung
RPMI-8226 leukemia = tested on: RPMI-8226 leukemia
EKVX NSCLC = tested on: EKVX NSCLC
UACC-62 melanoma = tested on: UACC-62 melanoma
RXF 393 renal = tested on: RXF 393 renal
HCT-116 colon = tested on: HCT-116 colon
KM12 colon = tested on: KM12 colon
SK-MEL-5 melanoma = tested on: SK-MEL-5 melanoma

**Q.** What does the source list for `Cc1ccc(C(=O)Nc2ccc(CN3CCN(C)CC3)c(C(F)(F)F)c2)cc1C#Cc1cnc2cccnn12`?
**A.** GI50 (MCF7 breast): 720 nM and 1290 nM; TGI (MCF7 breast): 2170 nM and 4420 nM; GI50 (COLO 205 colon): 328 nM and 879 nM; TGI (COLO 205 colon): 1240 nM and 3010 nM; GI50 (ACHN renal): 191 nM and 322 nM; TGI (ACHN renal): 1090 nM and 3240 nM; GI50 (DU-145 prostate): 423 nM and 712 nM; TGI (DU-145 prostate): 1570 nM and 3720 nM; GI50 (MOLT-4 leukemia): 350 nM and 703 nM; TGI (MOLT-4 leukemia): 2020 nM and 4450 nM; GI50 (A549 NSCLC): 377 nM and 1310 nM; TGI (A549 NSCLC): 1550 nM and 3790 nM; GI50 (SR leukemia): 447 nM and 383 nM; TGI (SR leukemia): 2110 nM and 1980 nM; GI50 (SK-OV-3 ovarian): 342 nM and 1160 nM; TGI (SK-OV-3 ovarian): 1220 nM and 3740 nM; GI50 (SK-MEL-28 melanoma): 367 nM and 742 nM; TGI (SK-MEL-28 melanoma): 1510 nM and 3700 nM; GI50 (SNB-19 CNS): 973 nM and 2700 nM; TGI (SNB-19 CNS): 2280 nM and 4670 nM; GI50 (HT29 colon): 300 nM and 469 nM; TGI (HT29 colon): 1290 nM and 3420 nM; GI50 (UACC-257 melanoma): 536 nM and 1560 nM; TGI (UACC-257 melanoma): 2040 nM and 4390 nM; GI50 (NCI-H23 lung): 964 nM; TGI (NCI-H23 lung): 4150 nM; GI50 (BT-549 breast): 1150 nM and 2570 nM; TGI (BT-549 breast): 2450 nM and 5190 nM; GI50 (NCI-H460 lung): 763 nM; TGI (NCI-H460 lung): 4070 nM; GI50 (NCI/ADR-RES ovarian): 387 nM and 1030 nM; TGI (NCI/ADR-RES ovarian): 2150 nM and 4540 nM; GI50 (NCI-H522 lung): 319 nM and 538 nM; TGI (NCI-H522 lung): 1280 nM and 3260 nM; GI50 (SF-268 CNS): 474 nM and 730 nM; TGI (SF-268 CNS): 2060 nM and 4270 nM; GI50 (MALME-3M melanoma): 474 nM; TGI (MALME-3M melanoma): 2860 nM; GI50 (IGROV1 ovarian): 272 nM and 269 nM; TGI (IGROV1 ovarian): 1280 nM and 1810 nM; GI50 (HOP-62 NSCLC): 413 nM and 849 nM; TGI (HOP-62 NSCLC): 1530 nM and 3730 nM; GI50 (T-47D breast): 540 nM and 1680 nM; TGI (T-47D breast): 2070 nM and 4370 nM; GI50 (SK-MEL-2 melanoma): 217 nM and 492 nM; TGI (SK-MEL-2 melanoma): 579 nM and 1430 nM; GI50 (CCRF-CEM leukemia): 618 nM and 1650 nM; TGI (CCRF-CEM leukemia): 5210 nM and 5630 nM; GI50 (SNB-75 CNS): 377 nM and 1020 nM; TGI (SNB-75 CNS): 1660 nM and 3030 nM; GI50 (PC-3 prostate): 1140 nM and 2190 nM; TGI (PC-3 prostate): 3200 nM and 5590 nM; GI50 (MDA-MB-231 breast): 215 nM and 317 nM; TGI (MDA-MB-231 breast): 1050 nM and 1240 nM; GI50 (LOX IMVI melanoma): 178 nM and 336 nM; TGI (LOX IMVI melanoma): 973 nM and 1160 nM; GI50 (U251 CNS): 473 nM and 1220 nM; TGI (U251 CNS): 1680 nM and 3940 nM; GI50 (M14 melanoma): 162 nM and 351 nM; TGI (M14 melanoma): 737 nM and 3420 nM; GI50 (CAKI-1 renal): 274 nM and 388 nM; TGI (CAKI-1 renal): 1090 nM and 1820 nM; GI50 (HCC-2998 colon): 579 nM and 1380 nM; TGI (HCC-2998 colon): 1860 nM and 4050 nM; GI50 (SF-539 CNS): 255 nM and 669 nM; TGI (SF-539 CNS): 722 nM and 2180 nM; GI50 (UO-31 renal): 340 nM and 349 nM; TGI (UO-31 renal): 1520 nM and 3190 nM; GI50 (OVCAR-4 ovarian): 171 nM and 479 nM; TGI (OVCAR-4 ovarian): 1640 nM and 4320 nM; GI50 (OVCAR-8 ovarian): 367 nM and 1080 nM; TGI (OVCAR-8 ovarian): 1460 nM and 3750 nM; GI50 (OVCAR-5 ovarian): 410 nM and 808 nM; TGI (OVCAR-5 ovarian): 1640 nM and 4690 nM; GI50 (786-0 renal): 428 nM and 903 nM; TGI (786-0 renal): 1690 nM and 4100 nM; GI50 (SW-620 colon): 283 nM and 594 nM; TGI (SW-620 colon): 1520 nM and 4120 nM; GI50 (MDA-MB-435): 260 nM and 753 nM; TGI (MDA-MB-435): 1230 nM and 3620 nM; GI50 (TK-10 renal): 419 nM and 649 nM; TGI (TK-10 renal): 1370 nM and 2880 nM; GI50 (SN12C renal): 262 nM and 515 nM; TGI (SN12C renal): 1260 nM and 3450 nM; GI50 (HOP-92 NSCLC): 104 nM and 306 nM; TGI (HOP-92 NSCLC): 785 nM and 2030 nM; GI50 (HS 578T breast): 364 nM and 544 nM; TGI (HS 578T breast): 2520 nM; GI50 (HL-60(TB) leukemia): 422 nM and 440 nM; TGI (HL-60(TB) leukemia): 1580 nM and 3880 nM; GI50 (SF-295 CNS): 327 nM and 1260 nM; TGI (SF-295 CNS): 1750 nM and 4270 nM; GI50 (HCT-15 colon): 313 nM and 501 nM; TGI (HCT-15 colon): 1270 nM and 3420 nM; GI50 (OVCAR-3 ovarian): 785 nM and 1360 nM; TGI (OVCAR-3 ovarian): 2070 nM and 4200 nM; GI50 (A498 renal): 299 nM and 470 nM; TGI (A498 renal): 1070 nM and 1850 nM; GI50 (NCI-H226 lung): 298 nM; TGI (NCI-H226 lung): 4410 nM; GI50 (RPMI-8226 leukemia): 627 nM and 1150 nM; TGI (RPMI-8226 leukemia): 3010 nM and 4260 nM; GI50 (EKVX NSCLC): 635 nM and 1790 nM; TGI (EKVX NSCLC): 2270 nM and 5140 nM; GI50 (UACC-62 melanoma): 306 nM and 1060 nM; TGI (UACC-62 melanoma): 1520 nM; GI50 (RXF 393 renal): 224 nM and 530 nM; TGI (RXF 393 renal): 972 nM and 2210 nM; GI50 (HCT-116 colon): 235 nM and 464 nM; TGI (HCT-116 colon): 1050 nM and 3430 nM; GI50 (KM12 colon): 45.5 nM and 131 nM; TGI (KM12 colon): 1220 nM and 3720 nM; GI50 (SK-MEL-5 melanoma): 790 nM and 2740 nM; TGI (SK-MEL-5 melanoma): 2040 nM and 4660 nM
